Conditions: Liquid

CC(O)CO (centres undefined) [1,2-propanediol]
Conditions	mass density [kg/m3]	viscosity [mPa·s]
292.1 K, 101.33 kPa, Capillary tube (Ostwald / Ubbelohde) method	–	60.61
293.1 K, 101.33 kPa, Capillary tube (Ostwald / Ubbelohde) method	–	58.09
293.15 K, 101.33 kPa, Pycnometric method	1035.5	–
298.15 K, 98 kPa, Buoyancy - hydrostatic balance	1032.56	–
298.15 K, 98 kPa, Falling or rolling sphere viscometry	–	43.69
298.15 K, 101.33 kPa, Capillary tube (Ostwald / Ubbelohde) method	–	43.69
298.15 K, 101.33 kPa, Pycnometric method	1032.56	–
298.15 K, 49030 kPa, Buoyancy - hydrostatic balance	1055.29	–
298.15 K, 49030 kPa, Falling or rolling sphere viscometry	–	64.02
298.15 K, 98060 kPa, Buoyancy - hydrostatic balance	1072.94	–
298.15 K, 98060 kPa, Falling or rolling sphere viscometry	–	94.28
298.15 K, 147100 kPa, Buoyancy - hydrostatic balance	1088.48	–
298.15 K, 147100 kPa, Falling or rolling sphere viscometry	–	134.1
298.15 K, 196130 kPa, Buoyancy - hydrostatic balance	1104.32	–
298.15 K, 196130 kPa, Falling or rolling sphere viscometry	–	187.2
298.15 K, 245160 kPa, Buoyancy - hydrostatic balance	1115.28	–
298.15 K, 245160 kPa, Falling or rolling sphere viscometry	–	260.7
303.15 K, 98 kPa, Buoyancy - hydrostatic balance	1028.87	–
303.15 K, 98 kPa, Falling or rolling sphere viscometry	–	32.35
303.15 K, 49030 kPa, Buoyancy - hydrostatic balance	1052.03	–
303.15 K, 49030 kPa, Falling or rolling sphere viscometry	–	48.25
303.15 K, 98060 kPa, Buoyancy - hydrostatic balance	1070.79	–
303.15 K, 98060 kPa, Falling or rolling sphere viscometry	–	69.46
303.15 K, 147100 kPa, Buoyancy - hydrostatic balance	1086.25	–
303.15 K, 147100 kPa, Falling or rolling sphere viscometry	–	97.33
303.15 K, 196130 kPa, Buoyancy - hydrostatic balance	1101.4	–
303.15 K, 196130 kPa, Falling or rolling sphere viscometry	–	134.7
303.15 K, 245160 kPa, Buoyancy - hydrostatic balance	1112.65	–
303.15 K, 245160 kPa, Falling or rolling sphere viscometry	–	183.3
303.4 K, 101.33 kPa, Capillary tube (Ostwald / Ubbelohde) method	–	31.54
312.98 K, 98 kPa, Buoyancy - hydrostatic balance	1022.16	–
312.98 K, 98 kPa, Falling or rolling sphere viscometry	–	19.45
313 K, 49030 kPa, Buoyancy - hydrostatic balance	1046.22	–
313 K, 49030 kPa, Falling or rolling sphere viscometry	–	28.34
313.03 K, 147100 kPa, Buoyancy - hydrostatic balance	1081.67	–
313.03 K, 147100 kPa, Falling or rolling sphere viscometry	–	54.68
313.03 K, 245160 kPa, Buoyancy - hydrostatic balance	1107.51	–
313.03 K, 245160 kPa, Falling or rolling sphere viscometry	–	98.04
313.04 K, 196130 kPa, Buoyancy - hydrostatic balance	1095.69	–
313.04 K, 196130 kPa, Falling or rolling sphere viscometry	–	73.88
313.05 K, 98060 kPa, Buoyancy - hydrostatic balance	1065.24	–
313.05 K, 98060 kPa, Falling or rolling sphere viscometry	–	39.87
313.15 K, 101.33 kPa, Pycnometric method	1021.9	–
313.9 K, 101.33 kPa, Capillary tube (Ostwald / Ubbelohde) method	–	19.37
316 K, 101.33 kPa, Capillary tube (Ostwald / Ubbelohde) method	–	17.04
332.1 K, 101.33 kPa, Capillary tube (Ostwald / Ubbelohde) method	–	8.76
333.15 K, 101.33 kPa, Pycnometric method	1006.3	–
335.76 K, 98060 kPa, Buoyancy - hydrostatic balance	1050.34	–
335.76 K, 98060 kPa, Falling or rolling sphere viscometry	–	14.23
335.78 K, 98 kPa, Buoyancy - hydrostatic balance	1005.31	–
335.78 K, 98 kPa, Falling or rolling sphere viscometry	–	7.524
335.78 K, 147100 kPa, Buoyancy - hydrostatic balance	1068.19	–
335.78 K, 147100 kPa, Falling or rolling sphere viscometry	–	18.86
335.8 K, 49030 kPa, Buoyancy - hydrostatic balance	1029.3	–
335.8 K, 49030 kPa, Falling or rolling sphere viscometry	–	10.59
335.8 K, 196130 kPa, Buoyancy - hydrostatic balance	1082.92	–
335.8 K, 196130 kPa, Falling or rolling sphere viscometry	–	24.61
336.01 K, 245160 kPa, Buoyancy - hydrostatic balance	1095.8	–
336.01 K, 245160 kPa, Falling or rolling sphere viscometry	–	30.53
353.15 K, 101.33 kPa, Pycnometric method	990.28	–
353.4 K, 101.33 kPa, Capillary tube (Ostwald / Ubbelohde) method	–	4.29
353.6 K, 101.33 kPa, Capillary tube (Ostwald / Ubbelohde) method	–	4.18
364.39 K, 98 kPa, Buoyancy - hydrostatic balance	981.63	–
364.39 K, 98 kPa, Falling or rolling sphere viscometry	–	3.034
364.66 K, 49030 kPa, Buoyancy - hydrostatic balance	1007.36	–
364.66 K, 49030 kPa, Falling or rolling sphere viscometry	–	4.074
364.83 K, 98060 kPa, Buoyancy - hydrostatic balance	1031.15	–
364.83 K, 98060 kPa, Falling or rolling sphere viscometry	–	5.292
364.87 K, 147100 kPa, Buoyancy - hydrostatic balance	1051.61	–
364.87 K, 147100 kPa, Falling or rolling sphere viscometry	–	6.718
364.99 K, 245160 kPa, Buoyancy - hydrostatic balance	1081.56	–
364.99 K, 245160 kPa, Falling or rolling sphere viscometry	–	10.31
365 K, 196130 kPa, Buoyancy - hydrostatic balance	1067.32	–
365 K, 196130 kPa, Falling or rolling sphere viscometry	–	8.372
365.15 K, 101.33 kPa, Pycnometric method	978.97	–
368.15 K, 101.33 kPa, Pycnometric method	977.28	–
388.6 K, 101.33 kPa, Capillary tube (Ostwald / Ubbelohde) method	–	1.767
389.3 K, 101.33 kPa, Capillary tube (Ostwald / Ubbelohde) method	–	1.7
394.95 K, 98 kPa, Buoyancy - hydrostatic balance	953.22	–
394.95 K, 98 kPa, Falling or rolling sphere viscometry	–	1.504
395.11 K, 49030 kPa, Buoyancy - hydrostatic balance	982.98	–
395.11 K, 49030 kPa, Falling or rolling sphere viscometry	–	1.954
395.17 K, 98060 kPa, Buoyancy - hydrostatic balance	1010.62	–
395.17 K, 98060 kPa, Falling or rolling sphere viscometry	–	2.451
395.38 K, 147100 kPa, Buoyancy - hydrostatic balance	1033.92	–
395.38 K, 147100 kPa, Falling or rolling sphere viscometry	–	3.011
395.57 K, 196130 kPa, Buoyancy - hydrostatic balance	1051.9	–
395.57 K, 196130 kPa, Falling or rolling sphere viscometry	–	3.659
395.68 K, 245160 kPa, Buoyancy - hydrostatic balance	1067.12	–
395.68 K, 245160 kPa, Falling or rolling sphere viscometry	–	4.374
399.15 K, 101.33 kPa, Pycnometric method	949.76	–
423.3 K, 101.33 kPa, Capillary tube (Ostwald / Ubbelohde) method	–	0.926
423.51 K, 98 kPa, Buoyancy - hydrostatic balance	926.76	–
423.51 K, 98 kPa, Falling or rolling sphere viscometry	–	0.925
423.62 K, 49030 kPa, Buoyancy - hydrostatic balance	959.18	–
423.62 K, 49030 kPa, Falling or rolling sphere viscometry	–	1.239
423.65 K, 101.33 kPa, Pycnometric method	925.92	–
423.9 K, 98060 kPa, Buoyancy - hydrostatic balance	989.94	–
423.9 K, 98060 kPa, Falling or rolling sphere viscometry	–	1.533
423.97 K, 147100 kPa, Buoyancy - hydrostatic balance	1016.34	–
423.97 K, 147100 kPa, Falling or rolling sphere viscometry	–	1.89
424.05 K, 196130 kPa, Buoyancy - hydrostatic balance	1038.38	–
424.05 K, 196130 kPa, Falling or rolling sphere viscometry	–	2.244
424.3 K, 245160 kPa, Buoyancy - hydrostatic balance	1054.25	–
424.3 K, 245160 kPa, Falling or rolling sphere viscometry	–	2.608
450.15 K, 101.33 kPa, Pycnometric method	896.89	–
452.07 K, 245160 kPa, Buoyancy - hydrostatic balance	1042.31	–
452.07 K, 245160 kPa, Falling or rolling sphere viscometry	–	1.656
452.1 K, 49030 kPa, Buoyancy - hydrostatic balance	934.51	–
452.1 K, 49030 kPa, Falling or rolling sphere viscometry	–	0.81
452.14 K, 98060 kPa, Buoyancy - hydrostatic balance	965.53	–
452.14 K, 98060 kPa, Falling or rolling sphere viscometry	–	0.995
452.17 K, 98 kPa, Buoyancy - hydrostatic balance	900.36	–
452.17 K, 98 kPa, Falling or rolling sphere viscometry	–	0.604
452.18 K, 196130 kPa, Buoyancy - hydrostatic balance	1022.83	–
452.18 K, 196130 kPa, Falling or rolling sphere viscometry	–	1.425
452.19 K, 147100 kPa, Buoyancy - hydrostatic balance	996.01	–
452.19 K, 147100 kPa, Falling or rolling sphere viscometry	–	1.212
458.9 K, 101.33 kPa, Capillary tube (Ostwald / Ubbelohde) method	–	0.533
